From PubChem BioAssay (NCI)
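Tested at 5 concentrations; 48 h exposure; 96-well plates; endpoints linearly interpolated, else capped at highest concentration. TGI denotes the concentration required for complete inhibition of growth.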

Experiments:
Test in all cases: inhibition of tumour cell growth, NCI panel, 48 h
MDA-N = tested on: MDA-N
SK-OV-3 ovarian = tested on: SK-OV-3 ovarian
HCC-2998 colon = tested on: HCC-2998 colon
UACC-62 melanoma = tested on: UACC-62 melanoma
IGROV1 ovarian = tested on: IGROV1 ovarian
EKVX NSCLC = tested on: EKVX NSCLC
A549 NSCLC = tested on: A549 NSCLC
OVCAR-3 ovarian = tested on: OVCAR-3 ovarian
NCI-H226 lung = tested on: NCI-H226 lung
HL-60(TB) leukemia = tested on: HL-60(TB) leukemia
HOP-92 NSCLC = tested on: HOP-92 NSCLC
DU-145 prostate = tested on: DU-145 prostate
CAKI-1 renal = tested on: CAKI-1 renal
TK-10 renal = tested on: TK-10 renal
SN12C renal = tested on: SN12C renal
NCI-H460 lung = tested on: NCI-H460 lung
OVCAR-5 ovarian = tested on: OVCAR-5 ovarian
K-562 leukemia = tested on: K-562 leukemia
COLO 205 colon = tested on: COLO 205 colon
HT29 colon = tested on: HT29 colon
NCI-H23 lung = tested on: NCI-H23 lung
HCT-15 colon = tested on: HCT-15 colon
NCI/ADR-RES ovarian = tested on: NCI/ADR-RES ovarian
SK-MEL-5 melanoma = tested on: SK-MEL-5 melanoma
HOP-62 NSCLC = tested on: HOP-62 NSCLC
ACHN renal = tested on: ACHN renal
UO-31 renal = tested on: UO-31 renal
KM12 colon = tested on: KM12 colon
MDA-MB-231 breast = tested on: MDA-MB-231 breast
T-47D breast = tested on: T-47D breast
SR leukemia = tested on: SR leukemia
LOX IMVI melanoma = tested on: LOX IMVI melanoma
U251 CNS = tested on: U251 CNS
HCT-116 colon = tested on: HCT-116 colon
SW-620 colon = tested on: SW-620 colon
SK-MEL-2 melanoma = tested on: SK-MEL-2 melanoma
A498 renal = tested on: A498 renal
RPMI-8226 leukemia = tested on: RPMI-8226 leukemia
BT-549 breast = tested on: BT-549 breast
SNB-75 CNS = tested on: SNB-75 CNS
SF-268 CNS = tested on: SF-268 CNS
HS 578T breast = tested on: HS 578T breast
SK-MEL-28 melanoma = tested on: SK-MEL-28 melanoma
MALME-3M melanoma = tested on: MALME-3M melanoma
SF-295 CNS = tested on: SF-295 CNS
786-0 renal = tested on: 786-0 renal
OVCAR-8 ovarian = tested on: OVCAR-8 ovarian
M14 melanoma = tested on: M14 melanoma
UACC-257 melanoma = tested on: UACC-257 melanoma
NCI-H522 lung = tested on: NCI-H522 lung
CCRF-CEM leukemia = tested on: CCRF-CEM leukemia
MDA-MB-435 = tested on: MDA-MB-435
OVCAR-4 ovarian = tested on: OVCAR-4 ovarian
MOLT-4 leukemia = tested on: MOLT-4 leukemia
SNB-19 CNS = tested on: SNB-19 CNS
PC-3 prostate = tested on: PC-3 prostate
SF-539 CNS = tested on: SF-539 CNS
RXF 393 renal = tested on: RXF 393 renal
MCF7 breast = tested on: MCF7 breast

## CN(C)/C=C/C=C(/C=N/S(=O)(=O)C(F)(F)F)C1C=CN(S(=O)(=O)C(F)(F)F)C=C1
MDA-N
  TGI: > 100 µM
SK-OV-3 ovarian
  TGI: 94 µM
HCC-2998 colon
  TGI: 78.5 µM
UACC-62 melanoma
  TGI: 83.9 µM
IGROV1 ovarian
  TGI: > 100 µM
EKVX NSCLC
  TGI: 87.2 µM
A549 NSCLC
  TGI: > 100 µM
OVCAR-3 ovarian
  TGI: 98 µM
NCI-H226 lung
  TGI: 67.3 µM
HL-60(TB) leukemia
  TGI: 46.4 µM
HOP-92 NSCLC
  TGI: 90 µM
DU-145 prostate
  TGI: > 100 µM
CAKI-1 renal
  TGI: 76.6 µM
TK-10 renal
  TGI: > 100 µM
SN12C renal
  TGI: > 100 µM
NCI-H460 lung
  TGI: > 100 µM
OVCAR-5 ovarian
  TGI: 91.7 µM
K-562 leukemia
  TGI: > 100 µM
COLO 205 colon
  TGI: 32.6 µM
HT29 colon
  TGI: 75.2 µM
NCI-H23 lung
  TGI: 56.6 µM
HCT-15 colon
  TGI: 57.8 µM
NCI/ADR-RES ovarian
  TGI: 96.1 µM
SK-MEL-5 melanoma
  TGI: 51.7 µM
HOP-62 NSCLC
  TGI: > 100 µM
ACHN renal
  TGI: 84.7 µM
UO-31 renal
  TGI: 89.4 µM
KM12 colon
  TGI: 71.1 µM
MDA-MB-231 breast
  TGI: 81.7 µM
T-47D breast
  TGI: 75 µM
SR leukemia
  TGI: > 100 µM
LOX IMVI melanoma
  TGI: > 100 µM
U251 CNS
  TGI: > 100 µM
HCT-116 colon
  TGI: 87.2 µM
SW-620 colon
  TGI: > 100 µM
SK-MEL-2 melanoma
  TGI: 54.1 µM
A498 renal
  TGI: 88.8 µM
RPMI-8226 leukemia
  TGI: > 100 µM
BT-549 breast
  TGI: 70.1 µM
SNB-75 CNS
  TGI: 50.6 µM
SF-268 CNS
  TGI: > 100 µM
HS 578T breast
  TGI: > 100 µM
SK-MEL-28 melanoma
  TGI: > 100 µM
MALME-3M melanoma
  TGI: 82.7 µM
SF-295 CNS
  TGI: > 100 µM
786-0 renal
  TGI: > 100 µM
OVCAR-8 ovarian
  TGI: > 100 µM
M14 melanoma
  TGI: > 100 µM
UACC-257 melanoma
  TGI: 77.7 µM
NCI-H522 lung
  TGI: 52.4 µM
CCRF-CEM leukemia
  TGI: 79.9 µM
MDA-MB-435
  TGI: 73.5 µM
OVCAR-4 ovarian
  TGI: 42.9 µM
MOLT-4 leukemia
  TGI: 71 µM

## C=CCNC(=S)/N=C/C(C(=O)Nc1ccccc1C)=C(\C)O
MDA-N
  TGI: > 100 µM
SK-OV-3 ovarian
  TGI: > 100 µM
HCC-2998 colon
  TGI: > 100 µM
UACC-62 melanoma
  TGI: > 100 µM
IGROV1 ovarian
  TGI: > 100 µM
EKVX NSCLC
  TGI: > 100 µM
A549 NSCLC
  TGI: > 100 µM
OVCAR-3 ovarian
  TGI: > 100 µM
NCI-H226 lung
  TGI: > 100 µM
HL-60(TB) leukemia
  TGI: > 100 µM
DU-145 prostate
  TGI: > 100 µM
CAKI-1 renal
  TGI: > 100 µM
TK-10 renal
  TGI: > 100 µM
SN12C renal
  TGI: > 100 µM
SNB-19 CNS
  TGI: > 100 µM
NCI-H460 lung
  TGI: > 100 µM
OVCAR-5 ovarian
  TGI: > 100 µM
K-562 leukemia
  TGI: > 100 µM
COLO 205 colon
  TGI: > 100 µM
HT29 colon
  TGI: > 100 µM
NCI-H23 lung
  TGI: > 100 µM
HCT-15 colon
  TGI: > 100 µM
NCI/ADR-RES ovarian
  TGI: > 100 µM
SK-MEL-5 melanoma
  TGI: > 100 µM
HOP-62 NSCLC
  TGI: > 100 µM
ACHN renal
  TGI: > 100 µM
UO-31 renal
  TGI: > 100 µM
KM12 colon
  TGI: > 100 µM
MDA-MB-231 breast
  TGI: > 100 µM
T-47D breast
  TGI: > 100 µM
LOX IMVI melanoma
  TGI: > 100 µM
U251 CNS
  TGI: > 100 µM
PC-3 prostate
  TGI: > 100 µM
HCT-116 colon
  TGI: > 100 µM
SW-620 colon
  TGI: > 100 µM
SK-MEL-2 melanoma
  TGI: > 100 µM
RPMI-8226 leukemia
  TGI: > 100 µM
BT-549 breast
  TGI: > 100 µM
SF-539 CNS
  TGI: > 100 µM
SF-268 CNS
  TGI: > 100 µM
HS 578T breast
  TGI: > 100 µM
SF-295 CNS
  TGI: > 100 µM
786-0 renal
  TGI: > 100 µM
OVCAR-8 ovarian
  TGI: > 100 µM
M14 melanoma
  TGI: > 100 µM
UACC-257 melanoma
  TGI: > 100 µM
NCI-H522 lung
  TGI: > 100 µM
RXF 393 renal
  TGI: > 100 µM
MCF7 breast
  TGI: > 100 µM
MDA-MB-435
  TGI: > 100 µM
OVCAR-4 ovarian
  TGI: > 100 µM
MOLT-4 leukemia
  TGI: > 100 µM
